Laboratory results reported in patent publication US20260126455A1, “Methods and Dosing Regimens for Preventing or Delaying Onset of Alzheimer's Disease and Other Forms of Dementia and Mild Cognitive Impairment” (priority 2020, published 2026).
“And” between values parts separate entries of the source, which are not always exact repeats. Equal entries are not always repeated. Where two headings read alike, the source gives them in different places.

Legend:
[1] = human, in vivo; cited from earlier work
[2] = test system: lipoprotein-associated phospholipase-A2; details: in vivo; cited from earlier work
[3] = over 20 epidemiological clinical trials; cited from earlier work
[4] = molecular target: 5HT6 receptor (Homo sapiens, UniProt P50406); details: in vivo; cited from earlier work
[5] = molecular target: T1, beta-secretase (Homo sapiens, UniProt P56817); details: in vivo; cited from earlier work
T1 construct: from tissue; host or cells: clinical-trial subjects (in vivo)

[6] = test system: SK-N-MC neurons; experiment: Morphological scoring of SK-N-MC cells exposed to Abeta42 plus A7R compounds; assay type: cell-based, human
[7] = test system: SK-N-MC neurons; experiment: Abeta42 immunocytochemistry: intracellular Abeta42 labeling in SK-N-MC cells exposed to Abeta42 plus A7R compounds; assay type: cell-based, human
[8] = test system: A7R-transfected SK-N-MC human neuroblastoma cells; details: cited from earlier work; for Intracellular accumulation of the peptide: 100 nanomolar
[9] = test system: C57BL/6J mice; experiment: CognitionWall discrimination learning test, 2-week study; assay type: in vivo
Procedure: This 2-week study was comprised of 2 groups of C57BL/6J mice as outlined in Table 5. Mice were infused with 100 μl pertussis toxin (3.0×10−3 μg/μl in saline) or 100 μl saline into the tail vein according to Table 5 to affect the BBB. Subsequently, Abeta42 (100 μl of 6.9 μM in saline) was infused into the tail vein. Groups 1 and 2 received 2 cycles of Abeta42 treatment.
Deficits in learning behavior correlated with degenerating neurons in mice treated with pertussis toxin and Abeta42 as compared with untreated mice in the 2-week study. The CognitionWall discrimination learning test was used to test learning behaviors in the mice. Fifteen minutes before the start of the discrimination learning (DL) and reversal learning (RL) task at 16.30 h on the 3th light phase in the Phenotyper, the CognitionWall was placed in front of the reward dispenser spout. After placement, several free rewards were dispensed and standard chow was removed from the feeding station. Mice had to learn to earn their food (Dustless Precision Pellets, 14 mg) by going through the left hole in the wall for the next 2 days (DL1 and DL2). The middle and right hole were deemed incorrect holes and passing through these holes was without any consequences. During the subsequent 2 days, the rewarded hole was switched to the right hole (reversal learning; RL1 and RL2). During DL and RL, one reward was delivered for every fifth entry through the correct hole (FR5 schedule of reinforcement). Mice were not required to make 5 consecutive correct entries (i.e., no chaining requirement). […] Online display of the number of earned rewards was used to evaluate food intake during the experiment. Based on pilot experiments to quantify the number of food rewards required to maintain body weight, mice were fed extra reward pellets when they earn fewer than 100 rewards per day for 2 or more consecutive days. […]

[10] = molecular target: A7R (Rattus norvegicus, UniProt Q05941); details: rat receptors; read-out: Ki, binding to A7R; cited from earlier work
[11] = molecular target: A7R; details: guinea pig receptors; read-out: Ki, binding to A7R; cited from earlier work
[12] = test system: Human neuroblastoma SK-N-MC cells, transfected with A7R; details: 100 nanomolar for 6 hours; cited from earlier work
[13] = test system: amyloid; details: Alzheimer's disease subjects; Solanezumab: Phase 3, mild Alzheimer's disease; cited from earlier work
[14] = test system: ischemic brain; details: rat, in vivo; cited from earlier work

amyloid, sequence (P05067 672-711): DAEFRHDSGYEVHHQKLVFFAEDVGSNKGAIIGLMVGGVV
5HT6 receptor, sequence (P50406 whole entry): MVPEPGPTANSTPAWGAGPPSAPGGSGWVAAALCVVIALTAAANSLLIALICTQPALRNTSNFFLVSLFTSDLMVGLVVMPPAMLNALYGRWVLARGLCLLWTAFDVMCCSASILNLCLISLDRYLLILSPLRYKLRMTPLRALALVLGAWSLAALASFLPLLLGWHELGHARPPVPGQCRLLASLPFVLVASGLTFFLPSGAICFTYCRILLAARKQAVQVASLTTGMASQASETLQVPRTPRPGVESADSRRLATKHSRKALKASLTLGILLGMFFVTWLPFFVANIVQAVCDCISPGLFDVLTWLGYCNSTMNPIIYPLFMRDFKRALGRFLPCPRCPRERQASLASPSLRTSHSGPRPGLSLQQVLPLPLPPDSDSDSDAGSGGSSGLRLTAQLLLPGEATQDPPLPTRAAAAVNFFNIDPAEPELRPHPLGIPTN
T1 sequence (P56817 46-501): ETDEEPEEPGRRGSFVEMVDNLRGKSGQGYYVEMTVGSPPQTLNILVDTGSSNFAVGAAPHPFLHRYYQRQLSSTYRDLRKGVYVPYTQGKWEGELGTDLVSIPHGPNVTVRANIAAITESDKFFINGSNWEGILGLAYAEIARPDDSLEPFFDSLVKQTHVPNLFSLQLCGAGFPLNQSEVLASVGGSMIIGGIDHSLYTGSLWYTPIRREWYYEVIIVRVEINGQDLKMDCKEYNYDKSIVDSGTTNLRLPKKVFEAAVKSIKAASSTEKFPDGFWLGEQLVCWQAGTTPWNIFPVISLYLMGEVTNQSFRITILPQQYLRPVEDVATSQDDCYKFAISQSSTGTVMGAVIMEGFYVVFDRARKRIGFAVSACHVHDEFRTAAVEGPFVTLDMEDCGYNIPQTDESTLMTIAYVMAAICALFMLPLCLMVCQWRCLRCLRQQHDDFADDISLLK
A7R (Rattus norvegicus, UniProt Q05941), sequence (Q05941 23-502): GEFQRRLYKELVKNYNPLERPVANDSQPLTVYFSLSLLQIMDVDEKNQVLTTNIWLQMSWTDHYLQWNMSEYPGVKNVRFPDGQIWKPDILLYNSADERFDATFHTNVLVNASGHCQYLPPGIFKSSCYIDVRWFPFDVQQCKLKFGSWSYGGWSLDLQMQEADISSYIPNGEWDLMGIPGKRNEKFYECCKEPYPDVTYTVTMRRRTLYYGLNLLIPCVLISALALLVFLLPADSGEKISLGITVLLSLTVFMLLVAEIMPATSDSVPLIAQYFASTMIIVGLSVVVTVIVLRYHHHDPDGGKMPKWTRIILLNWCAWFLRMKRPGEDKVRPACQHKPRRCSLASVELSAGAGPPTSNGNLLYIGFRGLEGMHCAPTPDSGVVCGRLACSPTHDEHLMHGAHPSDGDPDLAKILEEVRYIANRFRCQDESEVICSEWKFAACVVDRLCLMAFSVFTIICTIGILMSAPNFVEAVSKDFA

In the case of `CC(C)c1c(C(=O)Nc2ccccc2)c(-c2ccccc2)c(-c2ccc(F)cc2)n1CC[C@@H](O)C[C@@H](O)CC(=O)O` [Atorvastatin], the Cognitive measures [1] is given as “did not improve cognitive measures”.
In the case of `CCN(CC)CCN(Cc1ccc(-c2ccc(C(F)(F)F)cc2)cc1)C(=O)Cn1c(SCc2ccc(F)cc2)nc(=O)c2c1CCC2` [Darapladib], the BBB leakage [2] is listed as “reducing BBB leakage” and the Progression of atherosclerosis [2] is listed as “blocked the progression of atherosclerosis”.
For `CC(C)Cc1ccc(C(C)C(=O)O)cc1` (stereo not drawn) [Ibuprofen], the “Risk of Alzheimer's disease” value [3] is listed as “reduce the risk of Alzheimer's disease”.
In the case of `COc1ccc2c(c1)c(CC(=O)O)c(C)n2C(=O)c1ccc(Cl)cc1` [Indomethacin], the “Risk of Alzheimer's disease” value [3] is given as “reduce the risk of Alzheimer's disease”.
In the case of `O=S(=O)(c1ccccc1)c1cnc2c(N3CCNCC3)cccc2c1` [Intepirdine], the “Goals of a pivotal trial” value [4] is given as “failed to meet the goals of a pivotal trial”.
In the case of `NC1=N[C@@]2(c3cc(NC(=O)c4ccc(F)cn4)ccc3F)COC[C@H]2CS1` [LY2886721], the “Reason for stopping the clinical studies” value [5] is listed as “toxicity”.
In the case of `CN1CCCC1c1cccnc1` (stereo not drawn) [Nicotine], the “Morphologic scores 2 hr” value [6] is reported as 2.7, the “Morphologic scores 4 hr” value [6] is reported as 2.8 and the “Morphologic scores 6 hr” value [6] is reported as 2.8. For the same compound, the “Abeta42 immunolabeling scores 2 hr” value [7] was 1.7 and the “Abeta42 immunolabeling scores 6 hr” value [7] was 0.3.
For `c1cnc2cc3c(cc2n1)[C@@H]1CNC[C@H]3C1` [Varenicline], the “Protection of cells from Abeta42 toxicity (observed morphology)” value ([6]; cells treated with compound and Abeta42, similar at the other time points) was “protected from Abeta42 toxicity”.
In the case of Abeta40, the “Intracellular accumulation of the peptide” value (shortened to “Intracellular accumulation”) ([8]; 3 hours) is listed as “little detectable accumulation”.
With Abeta42 the “Learning performance in words” value ([9]; 2-week pilot study, 6 mice per group) was “did not impact learning impairment”, the “Entries to reach the learning criterion, group value” ([9]; 2 NA scores estimated as ~500) was about 230 entries and the “Entries (entries to 80% correct learning criterion)” value ([9]; individual mouse, 2-week study, NA = too impaired to test, T1, T2 second Abeta42 dose most likely subcutaneous) was 307 and 130 and 180 and 264 and 134 and 370. For the same compound, the Ki [10] was 4.1 pM, the Ki [11] was 5 pM and the “Intracellular accumulation” value ([8]; 3 hours) was “prominent, irregularly shaped Abeta42-positive deposits”. For the same compound, the “Intracellular accumulation” value ([8]; within 30 minutes) was “some accumulation of Abeta42-positive material” and the Cell death [12] was “cell death”.
With Alpha-bungarotoxin the “Morphologic scores 6 hr” value [6] was 2.5, the “Abeta42 immunolabeling scores 1 hr” value [7] was 0/1 and the “Abeta42 immunolabeling scores 2 hr” value [7] was 1/0. For the same compound, the “Abeta42 immunolabeling scores 4 hr” value [7] was 1/0 and the “Inhibition of Abeta42 accumulation in transfected cells” value [8] was “inhibited Abeta42 accumulation”.
For “Solanezumab: yet another anti-amyloid antibody”, the “Clinical trial efficacy end points” value [13] is given as “failed to reach statistical significance”.
For VEGF, the “Angiogenesis in the ischemic brain” value [14] is given as “enhanced angiogenesis” and the Neurological recovery [14] is given as “improved neurological recovery”.
